Test [1] deals with Human breast cancer cell line MCF-7. The test can be described thus: Estrogen (E2)-dependent growth assay on MCF-7. Type of test: cell-based. The settings on record: 24 hours; for suppression ratio of E2-dependent growth: MCF-7, 10 μM each peptide, 10 nM estrogen; for suppression ratio of estrogen-dependent growth: MCF-7, 10 nM estrogen, peptide concentration not given (FIG. 11B, 12B). The protocol: (§1) Growth assay on MCF-7 was carried out by seeding cells into 48-well plates (2×10^4 cells/200 μL). First, on the next day after seeding, the medium was changed to phenol red-free DMEM/F12 (Thermo Fisher Scientific) supplemented with 10% FBS, 1% Antibiotic/Antimycotic solution, 0.1 mM NEAA, 1 mM sodium pyruvate, and 10 μg/mL insulin. 24 hours later, the cells were treated with 10 nM 17β-estradiol (estrogen, Sigma) alone or with 10 nM estrogen and a PHB2 sequence-derived peptide. Growth assay on MCF-10A was carried out by seeding cells into 48-well plates (2×10^4 cells/200 μL). 24 hours after seeding, PHB2 sequence-derived peptide was added. Growth assays were carried out using the Cell Counting Kit-8 (CCK-8) (Dojindo, Kumamoto, Japan). The data are shown by mean±standard deviation of three independent experiments.
PHB2 peptides 11-21aa and 76-88aa were cross-linked by three types of cross-linking methods (FIG. 10A: hexafluorobenzene cross-linking, decafluorobiphenyl cross-linking, and disulfide cross-linking) to prepare cross-linked PHB2 peptides (stapled PHB2 peptides) (FIG. 10B), and the suppressive effects of these peptides on estrogen-dependent growth were examined. In the experiment, breast cancer cells MCF-7 were seeded, 10 μM each PHB2 peptide and 10 nM estrogen were added after 48 hours, and the cell number was evaluated after another 24 hours by MTT assay.

Test [2] has the same test system. The test can be described thus: Estrogen (E2)-dependent growth assay on MCF-7. The settings on record: 10 nM estrogen. Type of test: cell-based.
Test [3] concerns Normal mammary gland epithelial cell line MCF-10A. Nature of the test: Growth assay on normal mammary gland epithelial cells MCF-10A. It counts as cell-based. The protocol:
as §1

The subject of test [4] is PHB2 (Ser39) phosphorylation. The test can be described thus: Ser39 phosphorylation of PHB2 in MCF-7 by Western blotting. Type of test: cell-based, Human. To be noted: MCF-7, 10 μM each peptide, 10 nM estrogen, 24 hours (FIG. 2C). The protocol: For immunoblot analyses, after performing SDS-PAGE, the membranes blotted with proteins were blocked with 4% BlockAce solution (Dainippon Pharmaceutical, Osaka, Japan) for 3 hours and then incubated to react for 12 hours with antibodies against BIG3 (1:1,000), PHB2 (1:1,000) (Abcam, Cambridge, UK) and phosphorylated PHB2 (Ser39, Scrum, Tokyo, Japan). After allowing interaction with HRP-labeled secondary antibodies (anti-rat IgG-HRP for BIG3, 1:5,000; and anti-rabbit IgG-HRP for PHB2 and phosphorylated PHB2, 1:1,000) (Santa Cruz Biotechnology, Dallas, TX, USA) for 1 hour, the blots were developed with the Enhanced Chemiluminescence (ECL) system (GE Healthcare, Buckinghamshire, UK) and scanned using the Image Reader LAS-3000 mini (Fujifilm, Tokyo, Japan).

The mark [5] stands for this setting: MCF-7, 4 μM cyclic 11-21aa, 2 μM cyclic 76-88aa, up to 96 hours (FIG. 7B).
Where [6] appears, read: MCF-7, 10 μM peptide alone, after 96 hours.
[7] abbreviates: MCF-10A (FIG. 6B), 1 μM or 10 μM, up to 96 hours.
[8] abbreviates: MCF-10A, cyclic 11-21aa 4 μM, cyclic 76-88aa 2 μM (FIG. 7C).

Where “and” joins values, the source holds several entries; their conditions need not be identical. Equal entries are not always repeated. Positions of bridges follow the written chain, without caps; N, C: chain ends. Non-standard residues stand in square brackets, D forms with d. Residues, ends and D or L forms follow the SMILES beside them. No end group written: not given here. 2Nal = N[C@@H](Cc1ccc2ccccc2c1)C(=O)O; Nle = CCCC[C@H](N)C(=O)O; PEG = not defined here

Consider `CCCC[C@@H]1NC(=O)CNC(=O)[C@H](CCCNC(=N)N)NC(=O)[C@@H]2CCCN2C(=O)CNC(=O)[C@H](C)NC(=O)[C@@H]2CCCN2C(=O)[C@H](CC(C)C)NC(=O)[C@H](CCCNC(=N)N)NC(=O)[C@@H]2CSSC[C@H](NC(=O)[C@H]([C@@H](C)O)NC(=O)CNC1=O)C(=O)N[C@@H](Cc1ccccc1)C(=O)N[C@@H](Cc1ccc3ccccc3c1)C(=O)N[C@@H](CCCNC(=N)N)C(=O)N[C@@H](CCCNC(=N)N)C(=O)N[C@@H](CCCNC(=N)N)C(=O)N[C@@H](CCCNC(=N)N)C(=O)N2` [cyclic 11-21aa] (cyclo(CRLPAGPRG[Nle]GTCF[2Nal]RRRR); disulfide 1-13), for which the “suppression ratio of E2-dependent growth” value in test [1] was “enhanced suppression ratios compared to non-cyclic peptides”; in test [1] (listed as cyclic peptide 11-21aa), 53%; in test [2] (setting [5]) it was 41%; in test [2] (setting [6]), 67%. Further, the “effect on growth of MCF-10A” value in test [3] (setting [7]) is “no effect on the growth”; in test [3] (setting [8]), “no effect on growth”.

`CC[C@H](C)[C@@H]1NC(=O)[C@H](CC(=O)O)NC(=O)[C@H](Cc2ccc(O)cc2)NC(=O)[C@H]([C@@H](C)CC)NC(=O)[C@H]([C@@H](C)CC)NC(=O)[C@@H]2CCCN2C(=O)[C@H](Cc2ccc(O)cc2)NC(=O)[C@H](CCC(N)=O)NC(=O)[C@@H]2CSSC[C@H](NC(=O)[C@H](CCCNC(=N)N)NC(=O)[C@@H]3CCCN3C(=O)[C@H](CCCNC(=N)N)NC(=O)[C@H](C)NC(=O)[C@H](CCCNC(=N)N)NC1=O)C(=O)N[C@@H](Cc1ccccc1)C(=O)N[C@@H](Cc1ccc3ccccc3c1)C(=O)N[C@@H](CCCNC(=N)N)C(=O)N[C@@H](CCCNC(=N)N)C(=O)N[C@@H](CCCNC(=N)N)C(=O)N[C@@H](CCCNC(=N)N)C(=O)N2` [cyclic 76-88aa] (cyclo(CQYPIIYDIRARPRCF[2Nal]RRRR); disulfide 1-15): the “suppression ratio of E2-dependent growth” value in test [1] is listed as “enhanced suppression ratios compared to non-cyclic peptides”; in test [1] (listed as cyclic peptide 76-88aa) it was 58%; in test [2] (setting [5]), 59%; in test [2] (setting [6]) it was 72%. Also, the “effect on growth of MCF-10A” value is “no effect on the growth” in test [3] (setting [7]) and “no effect on growth” in test [3] (setting [8]).

Turning to “No. 2: PHB2 sequence-derived peptide 42-50aa (TVEGGHRAI; not fully specified (C-terminus))”, in test [1], the “suppression ratio of E2-dependent growth” value is 22% and 20%.

As for “No. 3: PHB2 sequence-derived peptide 38-50aa (ESVFTVEGGHRAI; not fully specified (C-terminus))”, the “suppression ratio of E2-dependent growth” value in test [1] is 23% and 17%.

On to “No. 6: PHB2 peptide 86-100aa (negative control) (RPRKISSPTGSKDLQ; not fully specified (C-terminus))”, for which the “suppression ratio of E2-dependent growth” value in test [1] is recorded as “about 10%”. The “band intensity of Ser39 phosphorylation of PHB2 compared to ERAP treatment” value in test [4] is reported as 10%.

For the compound “No. 50: PHB2 sequence-derived peptide 75-89aa (FQYPIIYDIRARPRK; not fully specified (C-terminus))”, the “suppression ratio of E2-dependent growth” value in test [1] is on record as “almost the same suppressive effect”.

On to “SEQ ID NO: 115: cross-linked PHB2 peptide 11-21aa without polyarginine at the C terminus (CRLPAGPRG[Nle]GTC-NH2; linker 1-13 via hexafluorobenzene)”, for which, in test [1], the “suppression ratio of E2-dependent growth” value is given as “about 70%”.

In the case of “SEQ ID NO: 116: cross-linked PHB2 peptide 11-21aa without polyarginine at the C terminus (CRLPAGPRG[Nle]GTC-NH2; linker 1-13 via decafluorobiphenyl)”, the “suppression ratio of E2-dependent growth” value in test [1] was “about 70%”.

Turning to “SEQ ID NO: 117: cross-linked PHB2 peptide 11-21aa without polyarginine at the C terminus (CRLPAGPRG[Nle]GTC-NH2; disulfide 1-13)”, the “suppression ratio of E2-dependent growth” value in test [1] is reported as “about 70%”.

Regarding “SEQ ID NO: 119: cross-linked PHB2 peptide 76-88aa without polyarginine at the C terminus (CQYPIIYDIRARPRC-NH2; linker 1-15 via hexafluorobenzene)”, in test [1], the “suppression ratio of E2-dependent growth” value is given as “about 70%”.

For “SEQ ID NO: 120: cross-linked PHB2 peptide 76-88aa without polyarginine at the C terminus (CQYPIIYDIRARPRC-NH2; linker 1-15 via decafluorobiphenyl)”, the “suppression ratio of E2-dependent growth” value in test [1] is listed as “about 70%”.

Consider “SEQ ID NO: 121: cross-linked PHB2 peptide 76-88aa without polyarginine at the C terminus (CQYPIIYDIRARPRC-NH2; disulfide 1-15)”, for which the “suppression ratio of E2-dependent growth” value in test [1] is reported as “about 70%”.

On to “SEQ ID NO: 123: cyclic PHB2 peptide 11-21aa, hexafluorobenzene cross-linked (CRLPAGPRG[Nle]GTCF[Nal]RRRR; linker 1-13 via hexafluorobenzene; not fully specified (C-terminus))”, for which, in test [1], the “suppression ratio of estrogen-dependent growth” value is “about 70%”.

Turning to “SEQ ID NO: 124: cyclic PHB2 peptide 11-21aa, decafluorobiphenyl cross-linked (CRLPAGPRG[Nle]GTCF[Nal]RRRR; linker 1-13 via decafluorobiphenyl; not fully specified (C-terminus))”, in test [1], the “suppression ratio of estrogen-dependent growth” value was “about 70%”.

For the compound “SEQ ID NO: 126: cyclic PHB2 peptide 76-88aa, hexafluorobenzene cross-linked (CQYPIIYDIRARPRCF[Nal]RRRR; linker 1-15 via hexafluorobenzene; not fully specified (C-terminus))”, the “suppression ratio of estrogen-dependent growth” value in test [1] is reported as “about 80%”.

“SEQ ID NO: 127: cyclic PHB2 peptide 76-88aa, decafluorobiphenyl cross-linked (CQYPIIYDIRARPRCF[Nal]RRRR; linker 1-15 via decafluorobiphenyl; not fully specified (C-terminus))”: the “suppression ratio of estrogen-dependent growth” value in test [1] was “about 80%”.

As to “SEQ ID NO: 133: PHB2 peptide 11-22aa in which glycines at positions 15 and 18 were substituted with D-alanines (RLPA[dA]PR[dA]MGTARRRRRRRR-NH2)”, the “suppression ratio of estrogen-dependent growth” value in test [1] is given as “no suppressive effect”.

In the case of “SEQ ID NO: 134: PHB2 peptide 11-22aa in which glycines at positions 15 and 18 were substituted with D-leucines (RLPA[dL]PR[dL]MGTARRRRRRRR-NH2)”, the “suppression ratio of estrogen-dependent growth” value in test [1] is “about 65%”.

With “branched bound: 11-22aa and 76-90aa sequences synthesized with branching, linked via a PEG sequence (peptide 1 RLPAGPRGMGTA; peptide 2 QYPIIYDIRARPRKI; linker (positions not given here) via PEG; not fully specified (N-terminus); reading uncertain; also: branched construct, branch and link places not given here)”, in test [1], the “suppression ratio of E2-dependent growth” value is 57%. For the same compound, the “inhibition ratio of MCF-10A growth” value in test [3] (MCF-10A, 10 μM each peptide, 24 hours) is given as “no effect on growth”.

Source of the values: US12595289B2, “Therapeutic agent for breast cancer comprising BIG3-PHB2 interaction-inhibiting peptide derived from PHB2” (TOKUSHIMA UNIVERSITY, priority 2018, dated 2026).
